Measured values as given in ChEMBL document CHEMBL1126353, “Substituted benzamides with conformationally restricted side chains. 4. Hetero-azabicyclo[x.y.0] derivatives as gastric prokinetic agents” (1992).
The source made the active and inactive calls. The calls are words filed in the database; no cut-off is given here.

Key:
[1] = tested on: Rattus norvegicus; experiment: Prokinetic activity expressed as ability to increase intragastric pressure in rat on subcutaneous administration; format: functional
[2] = biological target: Dopamine receptor (Rattus norvegicus) (UniProt P25115+P19020+P30729+P18901+P61169); experiment: Dopamine receptor antagonist activity expressed as ability to inhibit apomorphine-induced climbing behavior in rat on subcutaneous administration.; format: functional, organism-based
[3] = Ratio of ability to inhibit apomorphine induced climbing to that of increasing intragastric pressure in rats; format: functional
[4] = tested on: Canis familiaris; experiment: Compound was tested for inhibiting apomorphine-induced emesis in dog up to a dose of 10 mg/kg when administered subcutaneously; E - compound found effective; format: functional, organism-based; design: dose 10 mg/kg; settings: Canis lupus familiaris

| SMILES | Activity [1] [mg/kg] | ED50 [2] [mg/kg] | Ratio [3] | Activity [4] |
| --- | --- | --- | --- | --- |
| COc1cc(N)c(Cl)cc1C(=O)NC1CN2CCCCN2C1 | 0.5 | 10 | 20 |  |
| COc1cc(N)c(Cl)cc1C(=O)NC1CCN2CCCCN2C1 (stereo not drawn) | 1 | 30 | 30 |  |
| COc1cc(N)c(Cl)cc1C(=O)NC1CN2CCC(c3ccccc3)CN2C1 (stereo not drawn) | >1 | 5 |  |  |
| COc1cc(N)c(Cl)cc1C(=O)NC1CN2Cc3ccccc3CN2C1 | >1 | 10 |  |  |
| COc1cc(N)c(Cl)cc1C(=O)NC1CN2CC=CCN2C1 | >1 | > 50 |  |  |
| COc1cc(N)c(Cl)cc1C(=O)NC1CCN2CCSCC2C1 (stereo not drawn) | 1 | > 25 |  | Active |
| COc1cc(N)c(Cl)cc1C(=O)NC1CCN2C(C)COCC2C1 (stereo not drawn) | 0.2 | 40 | 200 |  |
| COc1cc(N)c(Cl)cc1C(=O)NC1CCN2CCOCC2C1 (stereo in doubt; 14) [listing 1 of 2 here] | 0.2 |  | 350 |  |
| COc1cc(N)c(Cl)cc1C(=O)NC1CCN2CCOCC2C1 (stereo in doubt; 14) [listing 2 of 2 here] |  | 70 |  |  |
| COc1cc(N)c(Cl)cc1C(=O)NC1CCN2CCOCC2C1 (stereo in doubt; 15) [listing 1 of 2 here] | 1 |  | 30 |  |
| COc1cc(N)c(Cl)cc1C(=O)NC1CCN2CCOCC2C1 (stereo in doubt; 15) [listing 2 of 2 here] |  | 30 |  |  |
| COc1cc(N)c(Cl)cc1C(=O)NC1CCCN2CCOCC12 (stereo in doubt; 17) [listing 1 of 2 here] | >5 |  |  |  |
| COc1cc(N)c(Cl)cc1C(=O)NC1CCCN2CCOCC12 (stereo in doubt; 17) [listing 2 of 2 here] |  | 30 |  |  |
| COc1cc(N)c(Cl)cc1C(=O)NC1CCCN2CCOCC12 (stereo in doubt; 18) [listing 1 of 2 here] | 1 |  |  |  |
| COc1cc(N)c(Cl)cc1C(=O)NC1CCCN2CCOCC12 (stereo in doubt; 18) [listing 2 of 2 here] |  | > 25 |  |  |
| COc1cc(N)c(Cl)cc1C(=O)NC1CCN2CC[S+]([O-])CC2C1 (stereo in doubt; 21) [listing 1 of 2 here] | 5 |  |  |  |
| COc1cc(N)c(Cl)cc1C(=O)NC1CCN2CC[S+]([O-])CC2C1 (stereo in doubt; 21) [listing 2 of 2 here] |  | > 10 |  |  |
| COc1cc(N)c(Cl)cc1C(=O)NC1CCN2CC[S+]([O-])CC2C1 (stereo in doubt; 22) [listing 1 of 2 here] | 1 |  |  |  |
| COc1cc(N)c(Cl)cc1C(=O)NC1CCN2CC[S+]([O-])CC2C1 (stereo in doubt; 22) [listing 2 of 2 here] |  |  |  | Active |
| COc1cc(N)c(Cl)cc1C(=O)NC1CCCN2CCSCC12 (stereo in doubt; 23) [listing 1 of 2 here] | >5 |  |  |  |
| COc1cc(N)c(Cl)cc1C(=O)NC1CCCN2CCSCC12 (stereo in doubt; 23) [listing 2 of 2 here] |  | 5 |  |  |
| COc1cc(N)c(Cl)cc1C(=O)NC1CCCN2CCSCC12 (stereo in doubt; 24) [listing 1 of 2 here] | 1 |  | 30 |  |
| COc1cc(N)c(Cl)cc1C(=O)NC1CCCN2CCSCC12 (stereo in doubt; 24) [listing 2 of 2 here] |  | 30 |  |  |
| COc1cc(N)c(Cl)cc1C(=O)NC1CCN2C(C)CCCC2C1 (stereo not drawn) [BRL-20627] | 0.5 | 25 | 50 |  |
| CCN(CC)CCNC(=O)c1cc(Cl)c(N)cc1OC [METOCLOPRAMIDE] | 1 | 0.8 | 0.8 |  |
